The values below come from patent US8668937B2, “Topical nitric oxide systems and methods of use thereof” (Transdermal Biotechnology, Inc., priority 2011, dated 2014).

Entries after “also recorded” stand apart in the source; their conditions may differ.

A short description of the data set: Nitric oxide gas bubbled through carrier, change in weight noted. Type of data set: physicochemical. Conditions: 25 °C. The method, then: This example illustrates one technique for preparing a composition in accordance with one embodiment of the invention. An accurate amount of a carrier (HNC 167-62) (see below) was introduced into a system. The carrier weight used in these experiments was approximately 250 g and the vessel size was 500 ml. The vessel was equipped with a mechanical stirrer, gas inlet, and gas outlet and was previously purged with argon for about an hour. The temperature of the carrier was kept at about 25-30° C. NO gas regulated at 5 psi (1 psi is about 6,900 Pa) and was then introduced at a controlled rate of about 1 bubble/s with continuous stirring. […] After 6 hours, the weight of the carrier had increased by 0.15%, by 12 hours by 0.25%, and by 24 hours by 0.56%. These increases in weight were believed to be significant considering the relative small molecular weight of NO versus the carrier. […] The carrier also can solidify upon cooling if the carrier is initially a solid at lower temperature.
Each carrier was taken in a 500 mL three necked flask equipped with a mechanical stirrer, gas inlet and a gas outlet. The system was purged with argon for one hour at room temperature (25° C.). Then nitric oxide gas was bubbled into the system. Then, nitric oxide gas was bubbled through carrier for stipulated amount of time. The changes in weight and color were noted. The details of individual experiments were as follows.

Turning to `OCCCO` [1,3-Propanediol, 1,3-propanediol], under “NO gas bubbled 40 hr”, the “% Wt. gain” value was found to be 0.09% and the “Wt. Gain g” value is 0.16 g. The “weight gain when NO was passed through (in words)” value (neat, NO gas bubbled 40 hours) was “only negligible, if any, weight gain; also recorded: failed to gain any significant weight”.
